The values below come from US9890166B2, “Imidazopyrrolidine derivatives and their use in the treatment of disease” (NOVARTIS AG, priority 2013, dated 2018).

Each structure is given as a SMILES string.

In one test the test system is THP-1 cells. In words: Cell growth inhibition assay (CellTiter-Glo), THP-1.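 For all read-outs here: viability read as cellular ATP luminescence after 4 days, 3-fold dilution series from 10 µM, DMSO vehicle-treated cells taken as 100%, cell-free medium wells as −100%.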 To be noted: for GI50: Homo sapiens, THP-1, read-out: THP-1 GI50; for THP-1 TGI: THP-1 cells, total growth inhibition, CellTiter-Glo.
For a further test, the target named is BRD3 (His-Brd3(20-477)) (Homo sapiens (Human), UniProt Q15059). Kind of test: TR-FRET in-vitro binding assay for BRD3. The conditions noted are these: single determination or n ≧ 2 independent determinations, read-out: Biochemical IC50 BRD3. The gist of the method:
(§1)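 His-tagged BRD2, BRD3 and BRD4 fragments tested by TR-FRET at 8 compound concentrations, with DMSO stocks at 10 mM. Read on EnVision after 35 min incubation at 30° C.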
In general terms: Time-resolved FRET reads energy transfer from a long-lived donor to a nearby acceptor.

A further test concerns K-562 cells. Kind of test: Cell growth inhibition assay (CellTiter-Glo), K-562.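 For all read-outs here: cellular ATP measured by luminescence after 4 days of exposure, 3-fold dilution series from 10 µM, DMSO vehicle-treated cells define 100%, cell-free medium wells −100%.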 The conditions noted are these: for GI50: Homo sapiens, K562, read-out: K-562 GI50; for K-562 TGI: K-562 cells, total growth inhibition, CellTiter-Glo.
In the next test the test system is MV-4-11 cells. Kind of test: Cell growth inhibition assay (CellTiter-Glo), MV-4-11.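 For all read-outs here: cellular ATP luminescence after 4 days, 3-fold dilution series from 10 µM top dose, vehicle (0.1% DMSO) set to 100%, cell-free medium set to −100%, day 0 corrected.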 To be noted: for GI50: Homo sapiens, MV4-11, read-out: MV-4-11 GI50; for MV-4-11 TGI: MV-4-11 cells, total growth inhibition, CellTiter-Glo. (In general: In ATP-based viability assays light output follows the ATP content of the culture.)
In a further test the target is BRD4 (His-Brd4(44-477)) (Homo sapiens (Human), UniProt O60885). In words: TR-FRET in-vitro binding assay for BRD4. The conditions noted are these: single determination or n ≧ 2 independent determinations, read-out: Biochemical IC50 BRD4. An outline of the steps:
as §1

The target of test [1] is CREBBP bromodomain (His-CREBBP(1081-1197)) (Homo sapiens (Human), UniProt Q92793). In words: AlphaScreen in-vitro binding assay for CREBBP. To be noted: single determination or n ≧ 2 independent determinations, read-out: Biochemical IC50 CREBBP. The gist of the method: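 Detection used nickel-chelate acceptor plus streptavidin donor AlphaScreen beads, 1 h room temperature. Percent inhibition fitted by non-linear regression to IC50.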
(Bead proximity is the source of the signal in Alpha formats.)

Another test addresses BRD2 (His-Brd2(60-472)) (Homo sapiens (Human), UniProt P25440). Kind of test: TR-FRET in-vitro binding assay for BRD2. To be noted: single determination or n ≧ 2 independent determinations, read-out: Biochemical IC50 BRD2. The method, then:
TR-FRET In-Vitro Binding Assays for BRD2, BRD3, and BRD4:
All assays were performed in 384 well microtiter plates. Each assay plate contained 8-point serial dilutions for 40 test compounds, plus 16 high- and 16 low controls. Liquid handling and incubation steps were done on an Innovadyne Nanodrop Express equipped with a robotic arm (Thermo CatX, Perkin Elmer/Caliper Twister II) and an incubator (Liconic STX40, Thermo Cytomat 2C450). The assay plates were prepared by addition of 50 nl per well of compound solution in 90% DMSO HummingBird nanodispenser (Zinsser Analytic). […] Reactions were incubated at 30° C. for 35 minutes. […] After 35 minutes incubation at 30° C., plates were measured in a Perkin Elmer EnVision multilabel reader.
Preparation of Compound Dilutions
Test compounds were dissolved in DMSO (10 mM) and transferred into 1.4 mL flat bottom or V-shaped Matrix tubes carrying a unique 2D matrix. The stock solutions were stored at […] if not used immediately. For the test procedure the vials were defrosted and identified by a scanner whereby a working sheet was generated that guided the subsequent working steps.
Compound dilutions were made in 96 well plates. This format enabled the assay of maximally 40 individual test compounds at 8 concentrations (single points) including 4 reference compounds, if desired (known BET inhibitors from the prior art, for this and other assays of the type disclosed herein). The dilution protocol included the production of “pre-dilution plates”, “master plates” and “assay plates”.
Pre-Dilution Plates: 96 polypropylene well plates were used as pre-dilution plates. A total of 4 pre-dilution plates were prepared including 10 test compounds each on the plate positions A1-A10, one standard compound at A11 and one DMSO control at A12. All dilution steps were done on a HamiltonSTAR robot.
These plates were used directly for the assay which was performed in a total volume of 13.55 μL.

Chain of BRD2 (His-Brd2(60-472)) (P25440 60-472): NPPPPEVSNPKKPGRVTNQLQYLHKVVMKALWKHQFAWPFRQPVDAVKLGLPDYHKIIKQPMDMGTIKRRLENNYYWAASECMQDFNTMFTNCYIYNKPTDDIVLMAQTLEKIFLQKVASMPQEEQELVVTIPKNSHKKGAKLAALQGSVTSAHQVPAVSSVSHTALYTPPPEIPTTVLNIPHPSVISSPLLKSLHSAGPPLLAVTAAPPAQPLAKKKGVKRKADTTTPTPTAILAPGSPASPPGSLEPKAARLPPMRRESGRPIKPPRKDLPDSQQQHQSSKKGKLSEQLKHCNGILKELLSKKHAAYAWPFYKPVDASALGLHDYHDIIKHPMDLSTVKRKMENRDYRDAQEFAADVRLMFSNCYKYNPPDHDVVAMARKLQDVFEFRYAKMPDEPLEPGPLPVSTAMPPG
Chain of CREBBP bromodomain (His-CREBBP(1081-1197)) (Q92793 1081-1197): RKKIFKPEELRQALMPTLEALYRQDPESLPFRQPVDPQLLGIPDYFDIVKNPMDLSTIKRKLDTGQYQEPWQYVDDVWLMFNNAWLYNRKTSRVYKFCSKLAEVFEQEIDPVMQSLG
Chain of BRD3 (His-Brd3(20-477)) (Q15059 20-477): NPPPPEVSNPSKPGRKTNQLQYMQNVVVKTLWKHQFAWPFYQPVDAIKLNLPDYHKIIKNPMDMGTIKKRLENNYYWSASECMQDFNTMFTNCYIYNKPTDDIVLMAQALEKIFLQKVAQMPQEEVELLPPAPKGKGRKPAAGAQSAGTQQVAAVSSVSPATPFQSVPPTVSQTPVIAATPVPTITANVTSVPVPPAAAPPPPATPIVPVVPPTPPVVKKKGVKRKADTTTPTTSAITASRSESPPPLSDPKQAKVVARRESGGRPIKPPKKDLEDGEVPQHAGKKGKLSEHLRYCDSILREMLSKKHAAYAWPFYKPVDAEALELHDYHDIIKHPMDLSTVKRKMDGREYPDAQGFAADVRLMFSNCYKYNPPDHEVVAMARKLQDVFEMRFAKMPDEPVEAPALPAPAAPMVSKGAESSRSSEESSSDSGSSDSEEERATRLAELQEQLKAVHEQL

The GI50 is the concentration giving 50% growth inhibition. Broadly, the IC50 is the concentration that gives 50% inhibition. For `COc1cc(N2C(=O)c3nc(C4CCOCC4)n(C(C)C)c3C2c2ccc(Cl)cc2)cc2c1nnn2C` (racemic) [Example 64], the 50% growth inhibitory concentration (GI50) with THP-1 cells stood at 84.3 nM; in the test with K-562 cells, 156 nM; in the test on MV-4-11 cells, 35.1 nM. In the test on THP-1 cells, the “THP-1 TGI” value stood at 155 nM. The IC50 on BRD3 (His-Brd3(20-477)) was 58 nM; on BRD4 (His-Brd4(44-477)), 43 nM; in test [1], 10200 nM; at BRD2 (His-Brd2(60-472)), 120 nM. Further, the “K-562 TGI” value in the test on K-562 cells was >10000 nM. In the test on MV-4-11 cells, the “MV-4-11 TGI” value came out at 54.6 nM.
On to `COc1ncccc1-c1nc2c(n1C(C)C)C(c1ccc(Cl)cc1)N(c1cc(OC)c3nnn(C)c3c1)C2=O` (racemic) [Example 74, 6-(4-chlorophenyl)-1-isopropyl-5-(4-methoxy-1-methyl-1H-benzo[d][1,2,3]triazol-6-yl)-2-(2-methoxypyridin-3-yl)-5,6-dihydropyrrolo[3,4-d]imidazol-4(1H)-one], for which the GI50 was found to be 57.9 nM in the test with THP-1 cells, 158 nM with K-562 cells and 38.2 nM in the test with MV-4-11 cells. The “THP-1 TGI” value with THP-1 cells was 121 nM. For the same compound, the 50% inhibitory concentration (IC50) on BRD3 (His-Brd3(20-477)) amounted to 61 nM; on BRD4 (His-Brd4(44-477)), 32 nM; in test [1] it was 10300 nM; at BRD2 (His-Brd2(60-472)), 140 nM. Also, the “K-562 TGI” value in the test on K-562 cells was >10000 nM. Further, the “MV-4-11 TGI” value in the test on MV-4-11 cells worked out at 59.25 nM.
As to `Cc1cc(N2C(=O)c3nc(C4CC4)n(C(C)C)c3C2c2ccc(Cl)cc2)cn(C)c1=O` (stereo not drawn) [Example 28, 6-(4-chlorophenyl)-2-cyclopropyl-5-(1,5-dimethyl-6-oxo-1,6-dihydropyridin-3-yl)-1-isopropyl-5,6-dihydropyrrolo[3,4-d]imidazol-4(1H)-one], the GI50 was 208 nM with THP-1 cells, 908 nM in the test with K-562 cells and 97.9 nM in the test with MV-4-11 cells. Moreover, the “THP-1 TGI” value in the test with THP-1 cells came out at 384 nM. Further, the IC50 on BRD3 (His-Brd3(20-477)) stood at 93.7 nM; on BRD4 (His-Brd4(44-477)), 117 nM; in test [1] it was 3400 nM; at BRD2 (His-Brd2(60-472)) it was 104 nM. Besides, in the test with K-562 cells, the “K-562 TGI” value is >10000 nM. The “MV-4-11 TGI” value in the test on MV-4-11 cells came to 136 nM.
As for `COc1ncc(-c2nc3c(n2C(C)C)C(c2ccc(Cl)cc2)N(c2cc(C)c4onc(C)c4c2)C3=O)c(OC)n1` (stereo not drawn) [Example 34, 6-(4-chlorophenyl)-2-(2,4-dimethoxypyrimidin-5-yl)-5-(3,7-dimethylbenzo[d]-isoxazol-5-yl)-1-isopropyl-5,6-dihydropyrrolo[3,4-d]imidazol-4(1H)-one], the GI50 with THP-1 cells amounted to 64.9 nM; in the test with K-562 cells, 219 nM; in the test on MV-4-11 cells it was 36.6 nM. In addition, in the test with THP-1 cells, the “THP-1 TGI” value is 109 nM. Moreover, the IC50 on BRD3 (His-Brd3(20-477)) was determined as 76.5 nM; on BRD4 (His-Brd4(44-477)), 65.2 nM; in test [1], 1670 nM; on BRD2 (His-Brd2(60-472)), 98.2 nM. Besides, the “K-562 TGI” value with K-562 cells is >10000 nM. In the test on MV-4-11 cells, the “MV-4-11 TGI” value is 76.6 nM.
In the case of `COc1ccc(-c2nc3c(n2C(C)C)C(c2ccc(Cl)cc2)N(c2cc(C)c4onc(C)c4c2)C3=O)cn1` (stereo not drawn) [Example 35, 6-(4-chlorophenyl)-5-(3,7-dimethylbenzo[d]isoxazol-5-yl)-1-isopropyl-2-(6-methoxypyridin-3-yl)-5,6-dihydropyrrolo[3,4-d]imidazol-4(1H)-one], the concentration for 50% growth inhibition (GI50) turned out to be 289 nM in the test on THP-1 cells, 946 nM with K-562 cells and 226 nM with MV-4-11 cells. Further, the “THP-1 TGI” value in the test with THP-1 cells came out at 462 nM. For the same compound, the IC50 at BRD3 (His-Brd3(20-477)) was 35 nM; on BRD4 (His-Brd4(44-477)) it was 21 nM; in test [1] it was > 37000 nM; on BRD2 (His-Brd2(60-472)) it was 43 nM. In addition, in the test on K-562 cells, the “K-562 TGI” value is >10000 nM. Further, in the test with MV-4-11 cells, the “MV-4-11 TGI” value came to 384 nM.
For `CCCn1c(-c2cc(OC)ncc2F)nc2c1C(=O)N(c1cc(C)c(=O)n(C)c1)C2c1ccc(Cl)cc1` (stereo not drawn) [Example 36, 6-(4-chlorophenyl)-5-(1,5-dimethyl-6-oxo-1,6-dihydropyridin-3-yl)-2-(5-fluoro-2-methoxypyridin-4-yl)-3-propyl-5,6-dihydropyrrolo[3,4-d]imidazol-4(3H)-one], the GI50 in the test on THP-1 cells was 115 nM; in the test on K-562 cells it was 250 nM; in the test with MV-4-11 cells it was 59.8 nM. For the same compound, in the test on THP-1 cells, the “THP-1 TGI” value worked out at 235 nM. Also, the IC50 on BRD3 (His-Brd3(20-477)) amounted to 160 nM; at BRD4 (His-Brd4(44-477)), 150 nM; in test [1] it was 2500 nM; at BRD2 (His-Brd2(60-472)), 164 nM. The “K-562 TGI” value in the test with K-562 cells is >10000 nM. In the test with MV-4-11 cells, the “MV-4-11 TGI” value turned out to be 104 nM.
Regarding `CCCn1c(-c2cncc(C#N)c2)nc2c1C(=O)N(c1cc(C)c(=O)n(C)c1)C2c1ccc(Cl)cc1` (stereo not drawn) [Example 37, 5-(4-(4-chlorophenyl)-5-(1,5-dimethyl-6-oxo-1,6-dihydropyridin-3-yl)-6-oxo-1-propyl-1,4,5,6-tetrahydropyrrolo[3,4-d]imidazol-2-yl)nicotinonitrile], the 50% growth inhibitory concentration (GI50) with THP-1 cells was found to be 100 nM; with K-562 cells, 320 nM; in the test with MV-4-11 cells, 66.9 nM. In the test with THP-1 cells, the “THP-1 TGI” value stood at 195 nM. Besides, the IC50 at BRD3 (His-Brd3(20-477)) came out at 164 nM; at BRD4 (His-Brd4(44-477)) it was 166 nM; in test [1], 4100 nM; at BRD2 (His-Brd2(60-472)), 274 nM. The “K-562 TGI” value with K-562 cells is >10000 nM. In the test on MV-4-11 cells, the “MV-4-11 TGI” value amounted to 105 nM.
`COc1ncccc1-c1nc2c(n1C(C)C)C(=O)N(c1cc(C)c(=O)n(C)c1)C2c1ccc(Cl)cc1` (stereo not drawn) [Example 44, 6-(4-chlorophenyl)-5-(1,5-dimethyl-6-oxo-1,6-dihydropyridin-3-yl)-3-isopropyl-2-(2-methoxypyridin-3-yl)-5,6-dihydropyrrolo[3,4-d]imidazol-4(3H)-one]: the IC50 at BRD3 (His-Brd3(20-477)) is 39 nM; on BRD4 (His-Brd4(44-477)), 39 nM; in test [1], 1000 nM; on BRD2 (His-Brd2(60-472)) it was 33 nM.
Consider `CCn1c(C)nc2c1[C@@H](c1ccc(Cl)cc1)N(c1cc(C)c3nnn(C)c3c1)C2=O` [Example 120, (R)-6-(4-chlorophenyl)-5-(3,7-dimethyl-3H-benzo[d][1,2,3]triazol-5-yl)-1-ethyl-2-methyl-5,6-dihydropyrrolo[3,4-d]imidazol-4(1H)-one], for which the half-maximal inhibitory concentration (IC50) on BRD3 (His-Brd3(20-477)) was 29.5 nM; on BRD4 (His-Brd4(44-477)) it was 20.5 nM; in test [1], 5130 nM; at BRD2 (His-Brd2(60-472)), 35.5 nM.
Turning to `CCn1c(C)nc2c1C(=O)N(c1cc(C)c3nnn(C)c3c1)[C@@H]2c1ccc(Cl)cc1` [Example 122, (R)-6-(4-chlorophenyl)-5-(3,7-dimethyl-3H-benzo[d][1,2,3]triazol-5-yl)-3-ethyl-2-methyl-5,6-dihydropyrrolo[3,4-d]imidazol-4(3H)-one], the IC50 on BRD3 (His-Brd3(20-477)) was determined as 26 nM; on BRD4 (His-Brd4(44-477)) it was 19 nM; in test [1], 2620 nM; on BRD2 (His-Brd2(60-472)) it was 21.5 nM.
On to `COc1ncccc1-c1nc2c([nH]1)C(c1ccc(Cl)cc1)N(c1cc(C)c3nnc(C)n3c1)C2=O` (stereo not drawn) [Example 123, 6-(4-chlorophenyl)-5-(3,8-dimethyl-[1,2,4]triazolo[4,3-a]pyridin-6-yl)-2-(2-methoxypyridin-3-yl)-5,6-dihydropyrrolo[3,4-d]imidazol-4(1H)-one], for which the IC50 at BRD3 (His-Brd3(20-477)) was found to be 87 nM; at BRD4 (His-Brd4(44-477)), 65 nM; in test [1], 5500 nM; at BRD2 (His-Brd2(60-472)), 97 nM.
The like results for `COc1ncccc1-c1nc2c([nH]1)[C@@H](c1ccc(Cl)cc1)N(c1cc(C)c3nnc(C)n3c1)C2=O` [Example 142, (R)-6-(4-chlorophenyl)-5-(3,8-dimethyl-[1,2,4]triazolo[4,3-a]pyridin-6-yl)-2-(2-methoxypyridin-3-yl)-5,6-dihydropyrrolo[3,4-d]imidazol-4(1H)-one] were, in that order, 36 nM, 40 nM, 1750 nM and 96 nM.
